In brackets after ≈: the same amount, converted by molar mass. One block for each molecule: values may come before it. Activity calls are given as the source filed them. No cut-off for these calls is given here.
What was measured:
[1] = system: A549; test: cells; conditions: Homo sapiens
Description: Antiproliferative activity against human A549 cells assessed as cell growth inhibition incubated for72 hrs by MTT assay

[2] = system: Huh-7; test: cells; conditions: Homo sapiens
Description: Antiproliferative activity against human Huh-7 cells assessed as cell growth inhibition incubated for72 hrs by MTT assay

[3] = system: T-24; test: cells; conditions: Homo sapiens
Description: Antiproliferative activity against human T-24 cells assessed as cell growth inhibition incubated for72 hrs by MTT assay

[4] = system: A549/TR; test: Antiproliferative activity against human A549/Taxol cells assessed as cell growth inhibition incubated for72 hrs by MTT assay; format: functional, cell-based
[5] = Resistance index, ratio of IC50 for human A549/Taxol cells to IC50 for human A549 cells; format: functional
[6] = Aqueous solubility of compound in pH 7.4 at 10 mg/ml by HPLC analysis; format: physicochemical; conditions: buffer
[7] = Lipophilicity, logP of compound in n-octanol-water at 5 mg/ml incubated for 8 hrs by HPLC analysis; format: physicochemical
[8] = organism: Sus scrofa; test: Inhibition of pig brain tubulin polymerization by absorbance based assay; format: tissue-based; conditions: dose <= 6.0 µM
[9] = Inhibition of pig brain tubulin polymerization measured after 20 mins by absorbance based assay; format: tissue-based, Sus scrofa
[10] = biological target: T1, Tubulin (Homo sapiens) (UniProt P68371+Q9H4B7+P0DPH7+P68366+Q13509+Q71U36+P04350+Q3ZCM7+P07437+P68363+Q9BQE3+Q6PEY2+Q13885+Q9BVA1+Q9BUF5); test: Inhibition of tubulin polymerization in human A549 cells assessed as disruption of microtubule aggregation incubated for 24 hrs by immunofluorescence based analysis; format: cell-based; conditions: dose 12.5-25 nM
[11] = biological target: T1, Tubulin (Homo sapiens); test: Inhibition of tubulin polymerization in human A549 cells assessed as decrease in spindle formation incubated for 24 hrs by immunofluorescence based analysis; format: cell-based; conditions: dose 12.5-25 nM
[12] = biological target: T1, Tubulin (Homo sapiens); test: Binding affinity to tubulin polymerization in human A549 cells assessed as N,N'-ethylene- bis(iodoacetamide)/beta-tubulin adduct formation at 5 uM incubated for 2 hrs by chemiluminescence based assay; format: cell-based
[13] = biological target: T1, Tubulin (Homo sapiens); test: Binding affinity to tubulin polymerization at colchicine-binding site in human A549 cells assessed as N,N'-ethylene- bis(iodoacetamide)/beta-tubulin adduct formation incubated for 2 hrs by chemiluminescence based assay; format: cell-based; conditions: dose 0.1-25 µM
[14] = system: A549; test: Induction of cell cycle arrest at G1 phase in human A549 cells at 12.5 nM incubated for 24 hrs by flow cytometry (reference value: 71.30 %); format: functional
[15] = system: A549; test: Induction of cell cycle arrest at S phase in human A549 cells at 12.5 nM incubated for 24 hrs by flow cytometry (reference value: 24.86 %); format: functional
[16] = system: A549; test: Induction of cell cycle arrest at G2/M phase in human A549 cells at 12.5 nM incubated for 24 hrs by flow cytometry (reference value: 3.84 %); format: functional
[17] = system: A549; test: Induction of cell cycle arrest at G1 phase in human A549 cells at 25 nM incubated for 24 hrs by flow cytometry (reference value: 71.30 %); format: functional
[18] = system: A549; test: Induction of cell cycle arrest at S phase in human A549 cells at 25 nM incubated for 24 hrs by flow cytometry (reference value: 24.86 %); format: functional
[19] = system: A549; test: Induction of cell cycle arrest at G2/M phase in human A549 cells at 25 nM incubated for 24 hrs by flow cytometry (reference value: 3.84 %); format: functional
[20] = system: A549; test: Induction of apoptosis in human A549 cells assessed as viable cells at 12.5 nM incubated for 24 hrs by Annexin V/7-Aad staining based flow cytometry (reference value: 93.63 %); format: functional; conditions: read-out: Activity
[21] = system: A549; test: Induction of apoptosis in human A549 cells assessed as early apoptotic cells at 12.5 nM incubated for 24 hrs by Annexin V/7-Aad staining based flow cytometry (reference value: 1.05 %); format: functional
[22] = system: A549; test: Induction of apoptosis in human A549 cells assessed as late apoptotic cells at 12.5 nM incubated for 24 hrs by Annexin V/7-Aad staining based flow cytometry (reference value: 3.20 %); format: functional
[23] = system: A549; test: Induction of apoptosis in human A549 cells assessed as necrotic cells at 12.5 nM incubated for 24 hrs by Annexin V/7-Aad staining based flow cytometry (reference value: 2.13 %); format: functional
[24] = system: A549; test: Induction of apoptosis in human A549 cells assessed as viable cells at 25 nM incubated for 24 hrs by Annexin V/7-Aad staining based flow cytometry (reference value: 93.63 %); format: functional; conditions: read-out: Activity
[25] = system: A549; test: Induction of apoptosis in human A549 cells assessed as early apoptotic cells at 25 nM incubated for 24 hrs by Annexin V/7-Aad staining based flow cytometry (reference value: 1.05 %); format: functional
[26] = system: A549; test: Induction of apoptosis in human A549 cells assessed as late apoptotic cells at 25 nM incubated for 24 hrs by Annexin V/7-Aad staining based flow cytometry (reference value: 3.20 %); format: functional
[27] = system: A549; test: Induction of apoptosis in human A549 cells assessed as necrotic cells at 25 nM incubated for 24 hrs by Annexin V/7-Aad staining based flow cytometry (reference value: 2.13 %); format: functional
[28] = system: A549; test: Induction of apoptosis in human A549 cells assessed as viable cells at 50 nM incubated for 24 hrs by Annexin V/7-Aad staining based flow cytometry (reference value: 93.63 %); format: functional; conditions: read-out: Activity
[29] = system: A549; test: Induction of apoptosis in human A549 cells assessed as early apoptotic cells at 50 nM incubated for 24 hrs by Annexin V/7-Aad staining based flow cytometry (reference value: 1.05 %); format: functional
[30] = system: A549; test: Induction of apoptosis in human A549 cells assessed as late apoptotic cells at 50 nM incubated for 24 hrs by Annexin V/7-Aad staining based flow cytometry (reference value: 3.20 %); format: functional
[31] = system: A549; test: Induction of apoptosis in human A549 cells assessed as necrotic cells at 50 nM incubated for 24 hrs by Annexin V/7-Aad staining based flow cytometry (reference value: 2.13 %); format: functional
[32] = system: A549; test: Inhibition of cell migration in human A549 cells at 12.5 nM incubated for 24 hrs by wound healing assay relative to control; format: functional
[33] = system: A549; test: Inhibition of cell migration in human A549 cells at 25 nM incubated for 24 hrs by wound healing assay relative to control; format: functional
[34] = system: A549; test: Inhibition of cell migration in human A549 cells at 50 nM incubated for 24 hrs by wound healing assay relative to control; format: functional
[35] = system: A549; test: Antitumor activity against human A549 cells xenografted in Balb/c nude mouse assessed as tumor growth inhibition at 25 mg/kg, IG qd for 21 days relative to control; format: functional; conditions: A549, po, 504 h, time 21 day, read-out: TGI
[36] = Toxicity in Balb/c nude mouse xenografted with human A549 cells assessed as body weight loss at 25 mg/kg, IG qd for 21 days; format: organism-based; conditions: in vivo, po, 504 h, time 21 day
[37] = Toxicity in Balb/c nude mouse xenografted with human A549 cells assessed as damage in liver at 25 mg/kg, IG qd for 21 days by H and E staining based analysis; format: organism-based; conditions: in vivo, po, 504 h, time 21 day
[38] = Toxicity in Balb/c nude mouse xenografted with human A549 cells assessed as damage in kidney at 25 mg/kg, IG qd for 21 days by H and E staining based analysis; format: organism-based; conditions: in vivo, po, 504 h, time 21 day
[39] = Toxicity in Balb/c nude mouse xenografted with human A549 cells assessed as damage in spleen at 25 mg/kg, IG qd for 21 days by H and E staining based analysis; format: organism-based; conditions: in vivo, po, 504 h, time 21 day

IC50 [1]: 92 nM
IC50 [2]: 100 nM
IC50 [3]: 110 nM
SMILES: COc1ccc(-c2ccc3cnn(-c4cc(OC)c(OC)c(OC)c4)c3c2)cc1

IC50 [1]: > 25000 nM
IC50 [2]: > 25000 nM
IC50 [3]: > 25000 nM
SMILES: COc1cc(-c2ccc3cnn(-c4ccc(C)cc4)c3c2)cc(OC)c1OC

IC50 [1]: 98 nM
IC50 [2]: 79 nM
IC50 [3]: 110 nM
SMILES: COc1cc(-n2ncc3ccc(-c4ccc5c(c4)CCO5)cc32)cc(OC)c1OC

IC50 [1]: > 25000 nM
IC50 [2]: > 25000 nM
IC50 [3]: > 25000 nM
SMILES: COc1cc(-c2ccc3c(C)nn(-c4ccc(C)cc4)c3c2)cc(OC)c1OC

IC50 [1]: > 25000 nM
IC50 [2]: > 25000 nM
IC50 [3]: > 25000 nM
SMILES: COc1ccc(-n2nc(C)c3ccc(-c4cc(OC)c(OC)c(OC)c4)cc32)cc1

IC50 [1]: 490 nM
IC50 [2]: 110 nM
IC50 [3]: 280 nM
SMILES: COc1ccc(-c2ccc3c(C)nn(-c4cc(OC)c(OC)c(OC)c4)c3c2)cc1

IC50 [1]: 1450 nM
IC50 [2]: 3730 nM
IC50 [3]: 2280 nM
SMILES: CCOc1ccc(-c2ccc3cnn(-c4cc(OC)c(OC)c(OC)c4)c3c2)cc1

IC50 [4]: 33 nM
solubility [6]: 149 µg/mL
logP at 8 h [7]: 1.8
IC50 [9]: 1750 nM
inhibition [10]: Dose-Dependent Effect
inhibition [11]: Dose-Dependent Effect
Activity [12]: Active
Activity [13]: Dose-Dependent Effect
IC50 [1]: 27 nM
IC50 [2]: 30 nM
IC50 [3]: 46 nM
SMILES: COc1cc(-n2ncc3ccc(-c4ccc(C)nc4)cc32)cc(OC)c1OC.Cl
Ratio IC50 [5]: 1.2
inhibition [8]: Dose-Dependent Effect
Activity [14]: 68.78%
Activity [15]: 18.11%
Activity [16]: 13.1%
Activity [17]: 3.04%
Activity [18]: 7.88%
Activity [19]: 89.07%
viability at 0.0125 µM [20]: 92.3%
Activity [21]: 3.02%
Activity [22]: 3.28%
Activity [23]: 1.44%
viability at 0.025 µM [24]: 69.1%
Activity [25]: 16.41%
Activity [26]: 12.23%
Activity [27]: 2.26%
viability at 0.05 µM [28]: 56.6%
Activity [29]: 26.53%
Activity [30]: 15.65%
Activity [31]: 1.19%
inhibition at 0.0125 µM [32]: 32.3%
inhibition at 0.025 µM [33]: 52.2%
inhibition at 0.05 µM [34]: 83.9%
inhibition in vivo at 25 mg/kg [35]: 64.1%
Activity [36]: Non-Toxic
Activity [37]: Non-Toxic
Activity [38]: Non-Toxic
Activity [39]: Non-Toxic

IC50 [1]: > 25000 nM
IC50 [2]: > 25000 nM
IC50 [3]: > 25000 nM
SMILES: COc1ccc(-n2ncc3ccc(-c4cc(OC)c(OC)c(OC)c4)cc32)cn1

IC50 [4]: 5650 nM
SMILES: CC(=O)O[C@H]1C(=O)[C@@]2(C)[C@H]([C@H](OC(=O)c3ccccc3)[C@]3(O)C[C@H](OC(=O)[C@H](O)[C@@H](NC(=O)c4ccccc4)c4ccccc4)C(C)=C1C3(C)C)[C@]1(OC(C)=O)CO[C@@H]1C[C@@H]2O [PACLITAXEL]
Ratio IC50 [5]: 403.8

IC50 [4]: 91 nM
solubility ([6]; read-out: solubility): 3.48 µg/mL (≈ 10.6 µM)
logP at 8 h [7]: 3.7
IC50 [1]: 60 nM
IC50 [2]: 54 nM
IC50 [3]: 130 nM
SMILES: COc1ccc2c(Nc3cc(OC)c(OC)c(OC)c3)n[nH]c2c1
Ratio IC50 [5]: 1.5
inhibition in vivo at 25 mg/kg [35]: 47.8%

IC50 [4]: 25 nM
solubility ([6]; read-out: solubility): 5.09 µg/mL (≈ 12.7 µM)
logP at 8 h [7]: 3.1
IC50 [1]: 25 nM
IC50 [2]: 28 nM
IC50 [3]: 30 nM
SMILES: COc1cc(-n2ncc3ccc(-c4cccc5[nH]ccc45)cc32)cc(OC)c1OC
Ratio IC50 [5]: 1

IC50 [1]: 19500 nM
IC50 [2]: > 25000 nM
IC50 [3]: > 25000 nM
SMILES: COc1cc(-c2ccc3c(C)nn(-c4ccc(OC(F)(F)F)cc4)c3c2)cc(OC)c1OC

IC50 [1]: 5300 nM
IC50 [2]: 1450 nM
IC50 [3]: 4820 nM
SMILES: COc1cc(-c2ccc3c(C)nn(-c4ccc5c(c4)CCO5)c3c2)cc(OC)c1OC

From ChEMBL document CHEMBL5634152, “The discovery of water-soluble indazole derivatives as potent microtubule polymerization inhibitors” (Eur J Med Chem, 2023)
